This passage reports Ki results from paper PMC5926957 (Japanese Journal of Cancer Research : Gann, 2002).

The assay has as its target P-glycoprotein (P-gp) (Homo sapiens, UniProt P08183). Description: calcein-AM efflux assay in L-MDR1 vs LLC-PK1 cells. It is filed as cell-based.

P-glycoprotein (P-gp), sequence (P08183 whole entry): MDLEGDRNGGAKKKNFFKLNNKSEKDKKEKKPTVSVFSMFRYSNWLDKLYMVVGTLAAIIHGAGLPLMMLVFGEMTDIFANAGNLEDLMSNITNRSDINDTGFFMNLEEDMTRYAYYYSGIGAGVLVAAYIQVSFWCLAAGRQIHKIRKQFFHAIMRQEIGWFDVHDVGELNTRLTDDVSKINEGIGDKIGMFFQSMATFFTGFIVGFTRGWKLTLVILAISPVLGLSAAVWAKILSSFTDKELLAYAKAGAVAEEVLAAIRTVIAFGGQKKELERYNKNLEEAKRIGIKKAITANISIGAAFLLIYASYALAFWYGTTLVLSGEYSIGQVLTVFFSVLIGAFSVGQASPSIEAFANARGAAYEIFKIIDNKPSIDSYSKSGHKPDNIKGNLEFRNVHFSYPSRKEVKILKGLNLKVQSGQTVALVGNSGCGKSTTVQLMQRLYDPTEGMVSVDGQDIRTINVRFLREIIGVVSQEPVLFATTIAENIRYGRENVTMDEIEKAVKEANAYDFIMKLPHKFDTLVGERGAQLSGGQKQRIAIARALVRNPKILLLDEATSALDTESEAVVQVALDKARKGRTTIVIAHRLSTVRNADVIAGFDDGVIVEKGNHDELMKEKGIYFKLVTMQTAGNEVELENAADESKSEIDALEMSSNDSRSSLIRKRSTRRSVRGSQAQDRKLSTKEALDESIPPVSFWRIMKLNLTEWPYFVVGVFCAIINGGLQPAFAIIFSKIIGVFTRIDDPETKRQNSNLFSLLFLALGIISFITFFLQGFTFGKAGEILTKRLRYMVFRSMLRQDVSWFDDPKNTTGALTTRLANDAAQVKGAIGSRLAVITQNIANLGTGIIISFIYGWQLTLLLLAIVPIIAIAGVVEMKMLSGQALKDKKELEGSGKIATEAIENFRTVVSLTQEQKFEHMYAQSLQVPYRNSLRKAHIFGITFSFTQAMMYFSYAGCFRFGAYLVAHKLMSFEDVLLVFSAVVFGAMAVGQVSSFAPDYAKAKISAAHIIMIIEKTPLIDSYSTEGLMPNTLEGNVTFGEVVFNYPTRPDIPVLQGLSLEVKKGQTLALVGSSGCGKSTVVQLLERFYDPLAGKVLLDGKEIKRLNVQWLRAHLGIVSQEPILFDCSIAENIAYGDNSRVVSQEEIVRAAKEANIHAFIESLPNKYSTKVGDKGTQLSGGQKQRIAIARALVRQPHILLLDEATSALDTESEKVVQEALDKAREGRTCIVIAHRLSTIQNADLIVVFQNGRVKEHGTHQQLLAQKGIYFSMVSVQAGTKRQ

`CC(C)C[C@H]1C(=O)N2CCC[C@H]2[C@]2(O)O[C@](NC(=O)[C@@H]3C=C4c5cccc6[nH]c(Br)c(c56)C[C@H]4N(C)C3)(C(C)C)C(=O)N12` [bromocriptine]: the Ki (as a rule, the equilibrium dissociation constant of an inhibitor or competing ligand from its target) is 6.52 µM.
